Data reported in patent publication US20150216870A1, “Combination of PI3K Inhibitor and C-Met Inhibitor” (Novartis AG, priority 2012, published 2015).
Entries after “also recorded” stand apart in the source; their conditions may differ.

Columns and labels:
EBC-1 = assay: Cell viability (CellTiterGlo) combination dose matrix in EBC-1; type: cell-based, human; conditions: combination with c-Met inhibitor, 72 h, excluding highest concentration, 0 no inhibition, 1 = 100% inhibition/stasis, 2 = cell death
Experimental: (§2) Compound stocks of both compounds are individually prepared in DMSO. Compounds are serially diluted using a Tecan dispenser to cover a ˜1000× range of concentrations. […] Both single agent and combinations are tested at multiple concentrations, along with controls and one self-cross.
(§3) The cell lines used in this study are purchased from American Type Cell Collection, including human non small cell lung cancer cell lines EBC-1 (which bears c-Met amplification), NCI-H1993 (which bears c-MET amplified), NCI-H1648 (which bears c-Met amplification), NCI-H1573 (which bears c-Met amplification and KRAS mutation) and HCC2935 (EGFR mutation). All cell lines are maintained in their respective culture medium as specified by the provider.
(§4) For the assessment of combination effects, cells are seeded into 384-well plates at 500 cells/well and incubated overnight. […]
(§5) Effects of single agents as well as their combination on cell viability is assessed after 72 hours of incubation at 37° C./5% CO2 by quantification of cellular ATP levels (CellTiterGlo, Promega) using 25 μL reagent/well and n=2 replicate plates per condition. The number/viability of cells at time of compound addition is likewise assessed and used to estimate the population doubling time of a cell line.
(§6) For untreated and treated levels U and T, inhibition is calculated using the formula I=1−T/U, which ranges from 0% to 100% for complete inhibition. […]
(§7) The Loewe expectation [Loewe S., Ergebn Physiol 27: 47-187 (1928)) is calculated at each dose pair CX,Y by finding the inhibition ILoewe such that (CX/ICX)+(CY/ICY)=1, and ICX,Y are the effective concentrations at ILoewe for the fitted single agent curves, using numerical optimization [Berenbaum M C, J Theor Biol 114: 413-431 (1985)]. The “synergy score” S is calculated by averaging the difference between Idata and ILoewe across all the tested combination dose points, excluding the highest concentration point in the dose matrix, which is most likely to be dominated by drug off-target effects. […]

NCI-H1993 = assay: Cell viability (CellTiterGlo) combination dose matrix in NCI-H1993; type: cell-based, human; conditions: combination with c-Met inhibitor, 72 h, excluding highest concentration
Experimental: as §2, §3, §4, §5, §6, §7

NCI-H1648 = assay: Cell viability (CellTiterGlo) combination dose matrix in NCI-H1648; type: cell-based, human; conditions: combination with c-Met inhibitor, 72 h, excluding highest concentration
Experimental: as §2, §3, §4, §5, §6, §7

NCI-H1573 = assay: Cell viability (CellTiterGlo) combination dose matrix in NCI-H1573; type: cell-based, human; conditions: combination with c-Met inhibitor, 72 h, excluding highest concentration
Experimental: as §2, §3, §4, §5, §6, §7

HCC2935 = assay: Cell viability (CellTiterGlo) combination dose matrix in HCC2935; type: cell-based, human; conditions: combination with c-Met inhibitor, 72 h, excluding highest concentration
Experimental: as §2, §3, §4, §5, §6, §7

[1] = system: NCI-H1993 human non-small cell lung carcinoma xenograft; assay: NCI-H1993 xenograft tumor growth inhibition and tumor growth delay; type: in vivo, athymic nude mice; conditions: COMPOUND D 30 mg/kg p.o. qd to end
Description: In this experiment, the NCI-H1993 human non-small cell lung carcinoma xenograft model is used to assess the anti-tumor efficacy of the PI3K inhibitor COMPOUND D and c-Met inhibitor 2-fluoro-N-methyl-4-[7-quinolin-6-yl-methyl)-imidazo[1,2-b][1,2,4]triazin-2yl]benzamide as single agents or in combination. NCI-H1993 tumor cells obtained from the American Type Culture Collection (ATCC) are derived from a lymph node metastasis of a patient having a stage 3A lung adenocarcinoma and a history of smoking.
Female athymic nude mice (Crl:NU (Ncr)-Foxn1^nu, Charles River) are 8 weeks old, and have a body weight (BW) range of 16.1-26.2 g, on D1 of the study. The animals are fed ad libitum water (reverse osmosis, 1 ppm CI) and NIH 31 Modified and Irradiated Lab Diet® consisting of 18.0% crude protein, 5.0% crude fat, and 5.0% crude fiber. The mice are housed on irradiated Enrich-O'cobs™ Laboratory Animal Bedding in static microisolators on a 12-hour light cycle at 20-22° C. (68-72° F.) and 40-60% humidity.
The NCI-H1993 tumor line is obtained from the American Type Culture Collection and maintained at DRS_NC in RPMI-1640 medium containing 100 unites/penicillin G sodium, 100 µg/mL streptomycin sulfate, 25 µg/mL gentamicin, 10% fetal bovine serum, and 2 mM glutamine. The tumor cells are cultured in tissue culture flasks in a humidified incubator at 37° C. in an atmosphere of 5% CO2 and 95% air.
The tumor cells used for implementation are harvested during log phase growth and resuspended in cold PBS containing 50% Matrigel™ (BD Biosciences). Each mouse is injected subcutaneously in the right flank with 1×10^7 cells (0.2 mL cell suspension). Tumors are calipered in two dimensions to monitor growth as their mean volume approached the desired 200-250 mm^3 range. Tumor size, in mm^3, was calculated from: Tumor Volume=(width^2×length)/2, where width and length (in mm) are measurements of the tumor. Tumor weight can be estimated with the assumption that 1 mg is equivalent to 1 mm^3 of tumor volume. Fourteen days after tumor cell implantation, on D1 of the study, mice with individual tumor volumes of 172-256 mm^3 are sorted into groups of ten mice, with group mean tumor volumes of 206-215 mm^3.
The c-Met inhibitor 2-fluoro-N-methyl-4-[7-quinolin-6-yl-methyl)-imidazo[1,2-b][1,2,4]triazin-2yl]benzamide (HCl salt, 84.98% free base) is stored at 4° C. and is added to a volume of deionized water equal to 1/2 of the final volume and sonicated until dissolved to obtain a uniform 2× suspension. An equal volume of 0.5% methylcellulose: 0.1% Tween® 80 is added to provide a 1.77 mg/mL solution with final vehicle concentrations of 0.25% methylcellulose and 0.05% Tween® 80 in deionized water (Vehicle 1). Fresh solutions are prepared once daily for the […]. dosing and stored at room temperature until the a.m. dosing.
COMPOUND D is suspended at 3.0 mg/mL in 0.5% methylcellulose in deionized water. The vehicle is added in portions equal to 1/3 of the final volume. The suspension is vortexed after each addition, and then finally probe sonicated on ice to prepare a homogeneous white suspension. A fresh suspension is prepared weekly, stored at 4° C., and re-suspended prior to dosing.
The c-MET inhibitor and the vehicle is each administered via oral gavage (p.o.) twice daily for the duration of the study (b.i.d. to end). COMPOUND D is administered via oral gavage (p.o.) once daily for the duration of the study (qd to end). In combination therapies, COMPOUND D is dosed within 30 minutes after the c-Met inhibitor. In all groups, the dosing volume of 10 mL/kg (0.2 mL/20 g mouse) is scaled to the weight of each animal as determined on the day of dosing, except on weekends when the previous BW is carried forward.
The groups of nude mice (n=10/group) are treated as follows. Group 1 receive Vehicle 1 and Vehicle 2 and serve as controls for the study. […] Group 3 receives 30 mg/kg COMPOUND D monotherapy once daily for the duration of the study (qd to end).

[2] = Toxicity (body weight, deaths) in NCI-H1993 xenograft study; type: in vivo; conditions: COMPOUND D 30 mg/kg p.o. qd to end
Experimental: (§1) Animals are weighed on Days 1-5, on each treatment day (except weekends), and twice weekly thereafter, until the end of the study. The maximum group mean body weight (BW) loss is determined for the interval between D1 and D20 as well as for the entire study. Group mean BW nadir determinations exclude measurements taken after more than 50% of the assessable mice in the group have exited the study, and also exclude any animal that was classified as a non-treatment related (NTR) death during the study. Acceptable toxicity for the maximum tolerated dose (MTD) is defined as a group mean BW loss of less than 15% during the test, and not more than one TR death among ten animals. Any animal with BW losses exceeding 15% for three consecutive measurements, or with a BW loss exceeding 20% for one measurement, are euthanized, and classified as a TR death unless it was the first death in the group. A death is classified as NTR if there was no evidence that the death is related to treatment side effects and the death occurs more than 14 days after dosing ended. NTR deaths are categorized as NTRa (due to accident or error), NTRu (due to unknown causes), or NTRm (necropsy-confirmed tumor dissemination by invasion and/or metastasis). To conserve animals while providing maximum information, the first death in a group was classified as NTRu; such an NTR death was to be reclassified as TR if two subsequent TR deaths are recorded in the same group.

[3] = system: U-87 MG human glioblastoma xenograft; assay: U-87 MG xenograft tumor growth inhibition and tumor growth delay; type: in vivo, nude mice; conditions: temozolomide 100 mg/kg p.o. qd x5
Experimental: In this experiment, the U-87 MG human glioblastoma xenograft model is used to assess the anti-tumor efficacy of the PI3K inhibitor COMPOUND C and c-Met inhibitor 2-fluoro-N-methyl-4-[7-quinolin-6-yl-methyl)-imidazo[1,2-b][1,2,4]triazin-2yl]benzamide as single agents or in combination. U-87 MG tumor cells obtained from the National Cancer Institute are reported to be homozygous for likely oncogenic variants of CDKN2A, CDKN2C, CDKN2a, and PTEN; no mutations are detected in MET, PIK3CA, or 58 other genes that are frequently altered in neoplastic cells; and HGF expressing.
Mice are treated daily for 21 days with 17.7 and 35.3 mg/kg of the c-Met inhibitor and 32.7 mg/kg COMPOUND C monotherapies, and with the c-Met inhibitor/COMPOUND C dual therapy at 17.7:32.7. An c-Met inhibitor/COMPOUND C combination at the 58.8:5.4 mg/kg dose ratio was included in the study. The control mice received both vehicles, and a standard preclinical temozolomide regimen monitored tumor model performance. The oral treatments began on Day 1 (D1) in nude mice with established subcutaneous tumors. Each animal was euthanized when its tumor reached the predetermined 2000 mm3 endpoint volume, or on D60, whichever came first. The study was terminated on D51. […] Overall efficacy was determined from the times required for tumors to progress to the volume endpoint, and from D51 survival and regression rates. This report describes the methods and results of the U87MG-e326 tumor growth delay experiment.
The animals are fed ad libitum water (reverse osmosis, 1 ppm CI) and NIH 31 Modified and Irradiated Lab Diet® consisting of 18.0% crude protein, 5.0% crude fat, and 5.0% crude fiber. The mice are housed on irradiated Enrich-O'cobs™ Laboratory Animal Bedding in static microisolators on a 12-hour light cycle at 20-22° C. (68-72° F.) and 40-60% humidity.
The U-87 MG tumor line is obtained from the American Type Culture Collection and maintained by serial engraftment in nude mice. A tumor fragment (1 mm^3) is implanted subcutaneously into the right flank of each test mouse. Tumors are calipered in two dimensions to monitor growth as their mean volume approached the desired 100-150 mm^3 range. Tumor size, in mm^3, was calculated from: Tumor Volume=(width^2×length)/2, where width and length (in mm) are measurements of the tumor. Tumor weight can be estimated with the assumption that 1 mg is equivalent to 1 mm^3 of tumor volume. Fourteen days after tumor cell implantation, on D1 of the study, mice with individual tumor volumes of 63-196 mm^3 are sorted into seven groups, with group mean tumor volumes of 122-127 mm^3.
The c-Met inhibitor 2-fluoro-N-methyl-4-[7-quinolin-6-yl-methyl)-imidazo[1,2-b][1,2,4]triazin-2yl]benzamide (di-HCl salt, 84.98% free base) is stored at 4° C. and is added to deionized water at 2× the final concentration and sonicated until dissolved. An equal volume of 0.5% methylcellulose and 0.1% Tween® 80 in deionized water is added to provide a 5.884 mg/mL dosing solution in 0.25% methylcellulose and 0.05% Tween® 80 in deionized water (Vehicle 1). Portions of this solution are diluted with Vehicle 1 to provide 3.53 and 1.765 mg/mL dosing solutions.
COMPOUND C (HCl salt, 91.85% free base) is stored at −20° C. and is added to 1% Tween® 80 in deionized water and sonicated to obtain a uniform suspension at 2× the final concentration. […] The 0.544 mg/mL dosing suspension is obtained by diluting a portion of the first suspension with Vehicle 2.

[4] = Toxicity (deaths) in U-87 MG xenograft study; type: in vivo; conditions: temozolomide 100 mg/kg p.o. qd x5
Description: as §1, with “the study. Group mean” for “the study. The maximum group mean body weight (BW) loss is determined for the interval between D1 and D20 as well as for the entire study. Group mean”, “the group had exited the” for “the group have exited the”, “and also excluded any animal” for “and also exclude any animal”, “classified as an NTR death during” for “classified as a non-treatment related (NTR) death during”, “classified as Non-Treatment Related (NTR) if there” for “classified as NTR if there”

Row | Compound | MaxGI (GImax, combination effectiveness) (EBC-1) | MaxGI (GImax, combination effectiveness) (NCI-H1993) | MaxGI (GImax, combination effectiveness) (NCI-H1648) | MaxGI (GImax, combination effectiveness) (NCI-H1573) | MaxGI (GImax, combination effectiveness) (HCC2935) | % TGD [1] [%] | D20 tumor growth inhibition / activity (in words) [1] | T-C [1] [days] | T/C or T/T0 ([1]; D20) [%] | Median TTE ([1]; endpoint 600 mm3) [days] | Regression: PR ([1]; number of animals) [PR] | overall survival (in words) ([1]; vs control Group 1) | Deaths [2] | tolerability (in words) [2] | % TGD [3] [%] | T/C or T/T0 ([3]; D13) [%] | Median TTE ([3]; endpoint 2000 mm3) [days] | Regress. ([3]; number of animals) | Deaths [4]
1 | Cn1c(=O)n(-c2ccc(C(C)(C)C#N)cc2)c2c3cc(-c4cnc5ccccc5c4)ccc3ncc21 [COMPOUND A, 2-methyl-2-[4-(3-methyl-2-oxo-8-quinolin-3-yl-2,3-dihydro-imidazo[4,5-c]quinolin-1-yl)-phenyl]-propionitrile] | 1.90 | 1.33 | 1.72 | 1.90 | 1.36 | – | – | – | – | – | – | – | – | – | – | – | – | – | –
2 | Cc1nc(NC(=O)N2CCC[C@H]2C(N)=O)sc1-c1ccnc(C(C)(C)C(F)(F)F)c1 [COMPOUND D, (S)-Pyrrolidine-1,2-dicarboxylic acid 2-amide 1-({4-methyl-5-[2-(2,2,2-trifluoro-1,1-dimethyl-ethyl)-pyridin-4-yl]-thiazol-2-yl}-amide)] | 1.87 | 1.21 | 1.37 | 0.57 | 0.77 | −4 | non-significant median tumor growth acceleration; also recorded: not significantly active (inactive) | -1.1 | 117 | 24.0 | 1 | non-significantly briefer overall survival than control | (0) | Well-tolerated | – | – | – | – | –
3 | Cn1nnc2c(C(N)=O)ncn2c1=O [Temozolomide, reference compound] | – | – | – | – | – | – | – | – | – | – | – | – | – | – | 51 | 48 | 17.7 | 0 | (0)
